Reference: article PMC9920298, “Coronavirus Inhibitors Targeting nsp16” (Molecules, 2023)

Key:
[1] = Cell viability (resazurin) assay in normal lung fibroblasts; conditions: human, MRC-5 lung fibroblasts
GST-NSP16 SARS-CoV-1 = GST-NSP16 SARS-CoV-1 (Severe acute respiratory syndrome coronavirus, UniProt P0C6X7); assay: biochemical; format: binding
GST-NSP16 SARS-CoV-2 = GST-NSP16 SARS-CoV-2 (Severe acute respiratory syndrome coronavirus 2, UniProt P0DTD1); assay: biochemical; format: binding
GST-NSP16 MERS-CoV = GST-NSP16 MERS-CoV (Middle East respiratory syndrome-related coronavirus, UniProt K9N7C7); assay: biochemical; format: binding
Chain of GST-NSP16 MERS-CoV (K9N7C7 6776-7078 limits assumed): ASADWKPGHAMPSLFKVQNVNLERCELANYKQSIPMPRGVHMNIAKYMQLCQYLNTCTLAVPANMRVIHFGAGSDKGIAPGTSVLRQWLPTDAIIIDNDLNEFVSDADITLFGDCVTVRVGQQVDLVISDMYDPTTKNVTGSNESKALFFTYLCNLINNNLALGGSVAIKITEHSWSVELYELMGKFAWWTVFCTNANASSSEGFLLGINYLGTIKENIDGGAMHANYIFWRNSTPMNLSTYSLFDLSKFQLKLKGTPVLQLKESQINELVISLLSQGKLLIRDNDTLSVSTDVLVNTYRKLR

SMILES	CC50 at 72 h [1] [µM]	Kd (GST-NSP16 SARS-CoV-1) [µM]	Binding to SARS-CoV-2 nsp16 by MST (in words) (GST-NSP16 SARS-CoV-2)	Kd (GST-NSP16 SARS-CoV-2) [µM]	Kd (GST-NSP16 MERS-CoV) [µM]	Binding to SARS-CoV-1 nsp16 by MST (in words) (GST-NSP16 SARS-CoV-1)	Binding to MERS-CoV nsp16 by MST (in words) (GST-NSP16 MERS-CoV)
O=c1cc(-c2cc3ccccc3oc2=O)c2ccc(OCc3cccc4ccccc34)cc2o1 [ZINC2129028, 7′-(naphthalen-1-ylmethoxy)-2H,2′H-3,4′-bichromene-2,2′-dione]	18.5 ± 0.66	56.4 ± 1.85	strong binding	60 ± 2.53	48.1 ± 4.12	–	–
Cc1ccc2ccccc2c1COc1ccc2c(-c3cc4ccccc4oc3=O)cc(=O)oc2c1 [ZINC2121012, 7′-[(2-methylnaphthalen-1-yl)methoxy]-2H,2′H-3,4′-bichromene-2,2′-dione]	–	–	strong binding	23.1 ± 1.05	–	bound to neither SARS-CoV-1 nor MERS-CoV	bound to neither SARS-CoV-1 nor MERS-CoV
COc1cccc2c(-c3cc4ccc(OCc5ccc6ccccc6c5)cc4oc3=O)cc(=O)oc12 [ZINC12880820, 8′-methoxy-7-[(naphthalen-2-yl)methoxy]-2H,2′H-[3,4′-bichromene]-2,2′-dione]	–	> 100	strong binding	29.1 ± 2.86	36.4 ± 1.12	–	–
